Earlier results as cited in article PMC12675671 (Nature Communications, 2025).

Test system: WT LRRK2

- pIC50 (experimental values), WT: 8.509
SMILES: COc1cc(C(=O)N2CCC(N3CCN(C)CC3)CC2)ccc1Nc1ncc2c(n1)N(C)c1ccccc1C(=O)N2C [LRRK2-IN-1]
